#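 The compound was tested at five concentrations on cells cultured in 96-well plates, with a 48-hour exposure period. GI50 marks 50% less growth. TGI is the concentration that stops growth completely.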
# Tests used:
# Test in all cases: DTP human tumour cell line panel, 48 h
# SK-MEL-2 melanoma = tested on: SK-MEL-2 melanoma
# SF-295 CNS = tested on: SF-295 CNS
# CCRF-CEM leukemia = tested on: CCRF-CEM leukemia
# MDA-MB-231 breast = tested on: MDA-MB-231 breast
# SK-MEL-28 melanoma = tested on: SK-MEL-28 melanoma
# 786-0 renal = tested on: 786-0 renal
# MOLT-4 leukemia = tested on: MOLT-4 leukemia
# UACC-62 melanoma = tested on: UACC-62 melanoma
# ACHN renal = tested on: ACHN renal
# EKVX NSCLC = tested on: EKVX NSCLC
# DU-145 prostate = tested on: DU-145 prostate
# MALME-3M melanoma = tested on: MALME-3M melanoma
# SN12C renal = tested on: SN12C renal
# SK-OV-3 ovarian = tested on: SK-OV-3 ovarian
# SR leukemia = tested on: SR leukemia
# COLO 205 colon = tested on: COLO 205 colon
# M14 melanoma = tested on: M14 melanoma
# K-562 leukemia = tested on: K-562 leukemia
# NCI-H226 lung = tested on: NCI-H226 lung
# HCT-116 colon = tested on: HCT-116 colon
# T-47D breast = tested on: T-47D breast
# NCI-H460 lung = tested on: NCI-H460 lung
# OVCAR-8 ovarian = tested on: OVCAR-8 ovarian
# U251 CNS = tested on: U251 CNS
# HOP-62 NSCLC = tested on: HOP-62 NSCLC
smiles,measurement,setting,value
O=C1C(Cl)=C(Nc2cccc(O)c2)C(=O)N1c1ccccc1Cl,TGI,SK-MEL-2 melanoma,61.6 µM
same,GI50,SF-295 CNS,40 µM
same,TGI,SF-295 CNS,> 100 µM
same,GI50,CCRF-CEM leukemia,1.48 µM
same,TGI,CCRF-CEM leukemia,19.6 µM
same,GI50,MDA-MB-231 breast,5.68 µM
same,TGI,MDA-MB-231 breast,42.4 µM
same,GI50,SK-MEL-28 melanoma,58 µM
same,TGI,SK-MEL-28 melanoma,> 100 µM
same,GI50,786-0 renal,39 µM
same,TGI,786-0 renal,> 100 µM
same,GI50,MOLT-4 leukemia,15.8 µM
same,TGI,MOLT-4 leukemia,38.1 µM
same,GI50,UACC-62 melanoma,19.6 µM
same,TGI,UACC-62 melanoma,62.3 µM
same,GI50,ACHN renal,> 100 µM
same,TGI,ACHN renal,> 100 µM
same,GI50,EKVX NSCLC,76.1 µM
same,TGI,EKVX NSCLC,> 100 µM
same,GI50,DU-145 prostate,30.9 µM
same,TGI,DU-145 prostate,> 100 µM
same,GI50,MALME-3M melanoma,10.9 µM
same,TGI,MALME-3M melanoma,69.1 µM
same,GI50,SN12C renal,17.3 µM
same,TGI,SN12C renal,46.4 µM
same,GI50,SK-OV-3 ovarian,49.9 µM
same,TGI,SK-OV-3 ovarian,> 100 µM
same,GI50,SR leukemia,7 µM
same,TGI,SR leukemia,40.2 µM
same,GI50,COLO 205 colon,30.3 µM
same,TGI,COLO 205 colon,> 100 µM
same,GI50,M14 melanoma,21.5 µM
same,TGI,M14 melanoma,> 100 µM
same,GI50,K-562 leukemia,25 µM
same,TGI,K-562 leukemia,63.2 µM
same,GI50,NCI-H226 lung,17 µM
same,TGI,NCI-H226 lung,49.6 µM
same,GI50,HCT-116 colon,20 µM
same,TGI,HCT-116 colon,70.9 µM
same,GI50,T-47D breast,32.3 µM
same,TGI,T-47D breast,> 100 µM
same,GI50,NCI-H460 lung,41.2 µM
same,TGI,NCI-H460 lung,> 100 µM
same,GI50,OVCAR-8 ovarian,32.1 µM
same,TGI,OVCAR-8 ovarian,> 100 µM
same,GI50,U251 CNS,33.3 µM
same,TGI,U251 CNS,> 100 µM
same,GI50,HOP-62 NSCLC,32.9 µM
same,TGI,HOP-62 NSCLC,> 100 µM

# Reference: PubChem BioAssay (NCI)
